Data published in US8586747B2, “3,3-dimethyl tetrahydroquinoline derivatives” (Hoffmann-La Roche Inc., priority 2010, dated 2013).

These molecules were tested on AMP-activated protein kinase (AMPK) (assay: ADP Quest assay for AMPK activators). Settings: fold of AMPK activation to phosphorylate SAMS peptide without and with an activator at the concentration of 30 µM.
Type: biochemical
Design: key: fold AMPK activation with vs without activator at 30 µM
Description: ADP Quest™ Assay for AMPK Activators
This method evaluates AMP-activated protein kinase (AMPK) activity through detecting the accumulation of ADP product using an ADP Quest kit and determining the E30 values of the small molecular AMPK activators. ADP Quest kit (DiscoveRx, Fremont, Calif.) is stored at −20° C. before use. Before an experiment, thaw the kit (include assay buffer, ADP standard solution, reagent A and reagent B) and equilibrate to room temperature. Dispense the ADP Quest reagents into single-use aliquots and store at −20° C. The compound concentrations typically range from 0 µM to 100 µM by 2-fold dilution. AMP concentrations range from […] to 1 mM as the reference control. In an assay, thaw and equilibrate the assay buffer, reagent A and reagent B to room temperature for 30 minutes prior to use. Mix ATP, SAMS peptide substrate and compound, and place them into the 384-well assay plate. Add reagent A and B based on the assay kit protocol. Incubate the assay plate at room temperature for 30 minutes after addition the mixture followed by the addition of AMPK protein (Invitrogen, CA) to initiate the AMPK phosphorylation reaction. At the same time, reactions with AMPK activator AMP in the absence of enzyme is included as blank control. The reaction fluorescence signal is monitored and recorded on Envision in kinetic mode with the excitation wavelength of 530 nm and emission wavelength of 590 nm. The E30 value, defined as the fold of AMPK activation to phosphorylate SAMS peptide without and with an activator at the concentration of 30 µM, is calculated and analyzed using Prism 5.0.

Q: Which E30 does the source give for `CN1CCC(NS(=O)(=O)c2cccc(C3Nc4ccc(C(=O)O)cc4CC3(C)C)c2)C1` (centres unmarked) [Example 229, 3,3-Dimethyl-2-(3-(N-(1-methylpyrrolidin-3-yl)sulfamoyl)phenyl)-1,2,3,4-tetrahydroquinoline-6-carboxylic acid] here?
A: 1.33

Q: `CC1(C)Cc2cc(C(=O)O)ccc2NC1c1cccc(S(=O)(=O)Nc2ccccc2)c1` (centres unmarked) [Example 230, 3,3-Dimethyl-2-(3-(N-phenylsulfamoyl)phenyl)-1,2,3,4-tetrahydroquinoline-6-carboxylic acid] was tested. Which E30 did it give?
A: 1.27

Q: For `CC1(C)Cc2cc(C(=O)O)ccc2NC1c1cccc(-n2nnnc2Cc2ccccc2)c1` (centres unmarked) [Example 147, 2-[3-(5-Benzyl-tetrazol-1-yl)-phenyl]-3,3-dimethyl-1,2,3,4-tetrahydro-quinoline-6-carboxylic acid], which E30 is on record?
A: 1.35

Q: `CC1(C)Cc2cc(C(=O)O)ccc2NC1c1cccc(C(=O)O)c1` (centres unmarked) [Example 7, 2-(3-Carbonyl-phenyl)-3,3-dimethyl-1,2,3,4-tetrahydro-quinoline-6-carboxylic acid] was tested. Which E30 did it give?
A: 1.31

Q: `CC(C)(C)c1ccc(-c2cccc(C3Nc4c(cc(Cl)cc4C(=O)NS(=O)(=O)C4CC4)CC3(C)C)c2)cc1` (centres unmarked) [Example 143, Cyclopropanesulfonic acid [2-(4′-tert-butyl-biphenyl-3-yl)-6-chloro-3,3-dimethyl-1,2,3,4-tetrahydro-quinoline-8-carbonyl]-amide] was tested. Which E30 did it give?
A: 1.33

Q: How did the E30 turn out when `CC1(C)Cc2cc(C(=O)O)ccc2NC1c1cccc(N2CCNC2=O)c1` (centres unmarked) [Example 17, 3,3-Dimethyl-2-[3-(2-oxo-imidazolidin-1-yl)-phenyl]-1,2,3,4-tetrahydro-quinoline-6-carboxylic acid] was run?
A: 1.45

Q: Which E30 does the source give for `Cc1ccccc1N1CCN(c2cccc(C3Nc4ccc(C(=O)O)cc4CC3(C)C)c2)CC1` (centres unmarked) [Example 152, 3,3-Dimethyl-2-[3-(4-o-tolyl-piperazin-1-yl)-phenyl]-1,2,3,4-tetrahydroquinoline-6-carboxylic acid] here?
A: 1.41

Q: How did the E30 turn out when `CC(C)(C)c1ccc(-c2cccc(C3Nc4c(cc(Cl)cc4C(=O)NS(C)(=O)=O)CC3(C)C)c2)cc1` (centres unmarked) [Example 144, N-[2-(4′-tert-Butyl-biphenyl-3-yl)-6-chloro-3,3-dimethyl-1,2,3,4-tetrahydro-quinoline-8-carbonyl]-methanesulfonamide] was run?
A: 1.25

Q: With `COc1cccc(C2Nc3ccc(C(=O)N4CCC(C)(O)C4)cc3CC2(C)C)c1` (centres unmarked) [Example 107, (3-Hydroxy-3-methyl-pyrrolidin-1-yl)-[2-(3-methoxy-phenyl)-3,3-dimethyl-1,2,3,4-tetrahydro-quinolin-6-yl]-methanone] as the molecule, how does the E30 read?
A: 1.29

Q: For `CC1(C)Cc2cc(C(=O)O)ccc2NC1c1cccc(C(=O)Nc2ccccc2)c1` (centres unmarked) [Example 14, 3,3-Dimethyl-2-(3-phenylcarbamoyl-phenyl)-1,2,3,4-tetrahydro-quinoline-6-carboxylic acid], which E30 is on record?
A: 1.2

Q: How did the E30 turn out when `CC1(C)Cc2cc(C(=O)O)ccc2NC1c1ccccc1NC1(C(=O)O)CC1` (centres unmarked) [Example 164, 2-[2-(1-Carboxy-cyclopropylamino)-phenyl]-3,3-dimethyl-1,2,3,4-tetrahydro-quinoline-6-carboxylic acid] was run?
A: 1.78

Q: With `CC(C)(C)c1ccc(-c2cccc(C3Nc4ccc(F)c(C(=O)O)c4CC3(C)C)c2)cc1` (centres unmarked) [Example 151, 2-(4′-tert-Butyl-biphenyl-3-yl)-6-fluoro-3,3-dimethyl-1,2,3,4-tetrahydro-quinoline-5-carboxylic acid] as the molecule, how does the E30 read?
A: 1.66

Q: With `CC1(C)Cc2cc(C(=O)O)ccc2NC1c1ccc(Cl)c(NC(=O)C2CCCCC2)c1` (centres unmarked) [Example 195, 2-(4-Chloro-3-(cyclohexanecarboxamido)phenyl)-3,3-dimethyl-1,2,3,4-tetrahydroquinoline-6-carboxylic acid] as the molecule, how does the E30 read?
A: 1.25

Q: With `CC1(C)Cc2cc(C(=O)O)ccc2NC1c1cccc(C(N)=O)c1` (centres unmarked) [Example 200, 2-(3-Carbamoylphenyl)-3,3-dimethyl-1,2,3,4-tetrahydroquinoline-6-carboxylic acid] as the molecule, how does the E30 read?
A: 1.58

Q: How did the E30 turn out when `CC(C)N(C(N)=O)c1cccc(C2Nc3ccc(C(=O)O)cc3CC2(C)C)c1` (centres unmarked) [Example 32, 2-[3-(1-Isopropyl-ureido)-phenyl]-3,3-dimethyl-1,2,3,4-tetrahydro-quinoline-6-carboxylic acid] was run?
A: 1.38

Q: With `CN1CCN(c2cccc(C3Nc4ccc(C(=O)O)cc4CC3(C)C)c2)CC1` (centres unmarked) [Example 99, 3,3-Dimethyl-2-[3-(4-methyl-piperazin-1-yl)-phenyl]-1,2,3,4-tetrahydro-quinoline-6-carboxylic acid] as the molecule, how does the E30 read?
A: 1.42

Q: How did the E30 turn out when `CC1(C)Cc2cc(C(=O)O)ccc2NC1c1cccc(C(=O)NC2CCC2)c1` (centres unmarked) [Example 172, 2-(3-(Cyclobutylcarbamoyl)phenyl)-3,3-dimethyl-1,2,3,4-tetrahydroquinoline-6-carboxylic acid] was run?
A: 1.34

Q: For `Cc1ccccc1N1CCN(c2cccc(C3Nc4ccc(C(=O)NS(C)(=O)=O)cc4CC3(C)C)c2)CC1` (centres unmarked) [Example 155, N-{3,3-Dimethyl-2-[3-(4-o-tolyl-piperazin-1-yl)-phenyl]-1,2,3,4-tetrahydro-quinoline-6-carbonyl}-methanesulfonamide], which E30 is on record?
A: 1.19

Q: For `CC(C)(Nc1cccc(C2Nc3ccc(C(F)(F)F)cc3CC2(C)C)c1)C(=O)O` (centres unmarked) [Example 45, 2-[3-(3,3-Dimethyl-6-trifluoromethyl-1,2,3,4-tetrahydro-quinolin-2-yl)-phenylamino]-2-methyl-propionic acid], which E30 is on record?
A: 2.41

Q: For `COc1cc(C2Nc3ccc(C(=O)O)cc3CC2(C)C)cc(N2CCOCC2)c1` (centres unmarked) [Example 66, 2-(3-Methoxy-5-morpholin-4-yl-phenyl)-3,3-dimethyl-1,2,3,4-tetrahydro-quinoline-6-carboxylic acid], which E30 is on record?
A: 1.42

Q: For `CC(C)(Nc1cccc(C2Nc3ccc(C(=O)O)cc3CC2(C)C)c1)C(=O)N1CCOCC1` (centres unmarked) [Example 41, 2-[3-(1,1-Dimethyl-2-morpholin-4-yl-2-oxo-ethylamino)-phenyl]-3,3-dimethyl-1,2,3,4-tetrahydro-quinoline-6-carboxylic acid], which E30 is on record?
A: 1.35

Q: Which E30 does the source give for `CC(C)NC(=O)c1cccc(C2Nc3ccc(C(=O)O)cc3CC2(C)C)c1` (centres unmarked) [Example 173, 2-(3-(Isopropylcarbamoyl)phenyl)-3,3-dimethyl-1,2,3,4-tetrahydroquinoline-6-carboxylic acid] here?
A: 1.24

Q: Which E30 does the source give for `CN(C)S(=O)(=O)c1cccc(C2Nc3ccc(C(=O)O)cc3CC2(C)C)c1` (centres unmarked) [Example 231, 2-(3-(N,N-dimethylsulfamoyl)phenyl)-3,3-dimethyl-1,2,3,4-tetrahydroquinoline-6-carboxylic acid] here?
A: 1.31

Q: How did the E30 turn out when `CC1(C)Cc2cc(C(=O)O)ccc2NC1c1cccc(S(=O)(=O)N2CCCC2)c1` (centres unmarked) [Example 227, 3,3-Dimethyl-2-(3-(pyrrolidin-1-ylsulfonyl)phenyl)-1,2,3,4-tetrahydroquinoline-6-carboxylic acid] was run?
A: 1.2

Q: With `CC1(C)Cc2cc(C(=O)O)ccc2NC1c1cccc(-n2cnc3c(c2=O)CCN(Cc2ccccc2)C3)c1` (centres unmarked) [Example 136, 2-[3-(7-Benzyl-4-oxo-5,6,7,8-tetrahydro-4H-pyrido[3,4-d]pyrimidin-3-yl)-phenyl]-3,3-dimethyl-1,2,3,4-tetrahydro-quinoline-6-carboxylic acid] as the molecule, how does the E30 read?
A: 1.3

Q: For `CC1(C)Cc2cc(C(=O)N3CCC[C@H]3C(=O)O)ccc2NC1c1cccc(N2CCOCC2)c1` (some centres unmarked) [Example 24, 1-[3,3-Dimethyl-2-(3-morpholin-4-yl-phenyl)-1,2,3,4-tetrahydro-quinoline-6-carboxyl]-pyrrolidine-2-carboxylic acid], which E30 is on record?
A: 1.3
